From paper PMC8466825, “Mass Spectrometric Quantification of the Antimicrobial Peptide Pep19-2.5 with Stable Isotope Labeling and Acidic Hydrolysis” (Pharmaceutics, 2021)

experiment: Stability of aromatic amino acids during acidic hydrolysis (HPLC); assay type: physicochemical; conditions: hydrochloric acid, 24 h at 120 °C, 1 mg/mL before hydrolysis, HPLC with UV 214 nm
Experimental: For acidic hydrolysis 10 µL ^13C6(ring) phenylalanine (1 mg/mL stock) were added as internal standard to 200 µL water containing ^13C9,^15N1 phenylalanine (for calibration curve) or human serum (from voluntary donors) containing Pep19-2.5 with four ^13C9,^15N1 phenylalanine residues. After addition of 270 µL hydrochloric acid (10 M), the samples were hydrolyzed at 120 °C for 24 h. Subsequently, the solvent was evaporated in a vacuum evaporator (HETOVAC) at 40 °C for 4 h and the pellet was resuspended in water to achieve the applied concentration.
HPLC analysis was performed using an Agilent 1100 system with an UV-detection at 214 nm. As stationary phase a Chromolith® Performance RP-18e 100–3 mm column (Merck KGaA, Darmstadt, Germany) was used. A 5 min linear gradient from 100% water (+0.05% trifluoroacetic acid (TFA)) to 100% acetonitrile (+0.05% TFA) was applied.
For an accurate determination it is necessary to select an amino acid which is stable under the extreme conditions in the hydrolysis step (24 h, 120 °C). Moreover, the development of the method is facilitated if the amino acid is UV-active and more importantly in case of hydrophobic amino acids that are separated from the bulk of amino acids by RP-HPLC. Due to this, the three aromatic amino acids phenylalanine, tryptophan and tyrosine were hydrolyzed, and their stability analyzed by HPLC, as shown in Figure 4.

Structure (SMILES) | stability during the acidic hydrolysis process
N[C@@H](Cc1c[nH]c2ccccc12)C(=O)O [Tryptophan, tryptophan] | forms several degradation products
N[C@@H](Cc1ccccc1)C(=O)O [phenylalanine] | sufficiently stable
N[C@@H](Cc1ccc(O)cc1)C(=O)O [tyrosine] | degraded to poorly soluble products
